According to the Kinase Knowledgebase extract (Sharma et al. 2016):

What follows are compounds tested against CDK2 (human) (UniProt P24941) (assay: Enzyme Assay).
With `COc1nc(C)c(-c2ccnc(Nc3ccc(Cl)cc3)n2)s1` the IC50 was 0.11 µM.
Compound `COc1nc(C)c(-c2ccnc(Nc3ccc(N(C)C)cc3)n2)s1` has an IC50 of 0.75 µM.
`COc1nc(C)c(-c2ccnc(Nc3ccc(F)c([N+](=O)[O-])c3)n2)s1` was tested, and the IC50 was 0.12 µM.
`COc1nc(C)c(-c2ccnc(Nc3ccc(F)c(C)c3)n2)s1` showed an IC50 of 0.13 µM.
For `COc1nc(C)c(-c2ccnc(Nc3ccc(Cl)c(C)c3)n2)s1`, the IC50 was 1.18 µM.
`Cc1nc(C)c(-c2ccnc(Nc3ccc(CCO)cc3)n2)s1` showed an IC50 of 0.47 µM.
With `COc1ccc(Nc2nccc(-c3sc(OC)nc3C)n2)cc1` the IC50 was 0.25 µM.
In the case of `COc1nc(C)c(-c2ccnc(Nc3ccc(C)c(I)c3)n2)s1`, the IC50 is reported as 0.7 µM.
Work on `COc1nc(C)c(-c2ccnc(Nc3cccc(O)c3)n2)s1` yielded an IC50 of 0.12 µM.
For `COc1nc(C)c(-c2ccnc(Nc3ccc(F)cc3)n2)s1`, the IC50 was 0.12 µM.
In the case of `COc1ccc(Nc2nccc(-c3sc(C)nc3C)n2)cc1O`, the IC50 is reported as 0.14 µM.
In the case of `COc1nc(C)c(-c2ccnc(Nc3cccc([N+](=O)[O-])c3)n2)s1`, the IC50 is reported as 0.06 µM.
Compound `Cc1nc(N)sc1-c1ccnc(Nc2ccc(C(F)(F)F)cc2)n1` has an IC50 of 0.68 µM.
For `COc1nc(C)c(-c2ccnc(Nc3ccc(O)cc3)n2)s1`, the IC50 was 0.05 µM.
`COc1nc(C)c(-c2ccnc(Nc3ccc(C)c([N+](=O)[O-])c3)n2)s1` gave an IC50 of 0.11 µM.
